What was measured:
[1] = test system: MC38 colorectal tumor cell line; experiment: Adoptive T cell transfer and MC38 tumor model; assay type: in vivo, mouse
Excerpt: Similar to the “Adoptive T cells transfer-induced colitis model,” Treg cells were activated in vitro and transduced with pSIRG-GFP expressing sgNT or sgBrd9. Four days after transduction, the GFP+ transduced Treg were FACS sorted. Concurrently, Treg depleted CD4 and CD8 T cells isolated from Rosa-Cas9/Foxp3^Thy1.1 mice were used as effector T cells. A total of 1 million pSIRG-sgRNA transduced GFP+ Treg cells, 1 million effector CD8 T cells, and 2 million Treg-depleted CD4 T cells were mixed and transferred into Rag1^−/− recipient mice. On the following day, mice were implanted with 0.5 million MC38 cells by subcutaneous injection on the flank of mouse. When palpable tumor appeared, tumor size was measured every two day by electronic calipers. At the end point, spleen and tumor were collected for immune profiling. For tumor processing, tumor tissues were minced into small pieces and digested with 0.5 mg/mL Collagenase IV (Sigma #C5138) and DNAase I (Roche #4716728001) for 20 minutes and passed through […] cell strainer to collect single cell suspension. Isolated cells were stimulated with PMA/Ionomycin and GolgiPlug™ for 5 hours, and then were subjected to Foxp3 and cytokines staining with eBioscience® Fix/Perm buffer (eBioscience #00-5523-00).

[2] = test system: H3K27ac; experiment: H3K27ac ChIP-seq in Treg cells; assay type: cell-based, mouse; settings: sgRNA transduced Treg cells
Protocol: Treg cells were collected and cross-linked first in 3 mM disuccinimidyl glutarate (DSG) in 1×PBS for thirty minutes then in 1% formaldehyde for another ten minutes, both at RT, for chromatin binding protein ChIP or in 1% formaldehyde only for histone modification ChIP. After quenching the excess cross-linker with a final concentration of 125 mM glycine, the cells were washed in 1× PBS, pelleted, flash-frozen in liquid nitrogen, and stored at −80° C. Cell pellets were thawed on ice and incubated in lysis solution (50 mM HEPES-KOH pH 8, 140 mM NaCl, 1 mM EDTA, 10% glycerol, 0.5% NP40, 0.25% Triton X-100) for ten minutes. The isolated nuclei were washed with wash solution (10 mM Tris-HCl pH 8, 1 mM EDTA, 0.5 mM EGTA, 200 mM NaCl) and shearing buffer (0.1% SDS, 1 mM EDTA, 10 mM Tris-HCl pH 8) then sheared in a Covaris® E229 sonicator for ten minutes to generate DNA fragments between ˜200-1000 base pairs (bp). After clarification of insoluble material by centrifugation, the chromatin was immunoprecipitated overnight at 4° C. with antibodies against Foxp3, Smarca4, Brd9, Phf10 or H3K27ac. […]
Single-end 50 bp or paired-end 42 bp reads were aligned to mouse genome mm10 using STAR alignment tool (V2.5) (Dobin et al., Bioinformatics 29:15-21, 2013). […]

[3] = test system: Foxp3-bound sites; experiment: Foxp3 ChIP-seq in Treg cells; assay type: cell-based, mouse
Excerpt: For large scale Treg culture, Tregs were first expanded in Rosa-Cas9/Foxp3^Thy1.1 mice by injecting IL-2:IL-2 antibody immune complex according protocol described in Webster et. al (J Exp Med 206, 751-760, 2009). Spleen and lymph node Treg cells were labeled with PE-conjugated Thy1.1 antibody and isolated by magnetic selection using anti-PE microbeads (Mitenyl #130-048-801). All isolated Treg cells were activated by plate bound anti-CD3 and anti-CD28 antibodies and cultured with X-VIVO® 20 media (LONZA #04-448Q) supplemented by 1× Pen/Strep, 1× Sodium pyruvate, 1× HEPES, 1× GlutaMax™, 55 μM beta-mercaptoethanol in the presence of IL-2 at 500 units/mL. For experiments with Brd9 degradation, Treg cells were treated at day 0 with 2.5 μM dBRD9 (Tocris #6606) and cultured for four days for RNA- and ChIP-seq and 0.16-10 μM treated at day 0 and cultured dBRD9 for four days for Foxp3 MFI, cell viability and cell proliferation assays. Live cells were enriched by Ficoll-Paque® 1.084 (GE Health 17-5446-02) for RNA-seq and ChIP-seq.
Treg cells were collected and cross-linked first in 3 mM disuccinimidyl glutarate (DSG) in 1×PBS for thirty minutes then in 1% formaldehyde for another ten minutes, both at RT, for chromatin binding protein ChIP or in 1% formaldehyde only for histone modification ChIP. After quenching the excess cross-linker with a final concentration of 125 mM glycine, the cells were washed in 1× PBS, pelleted, flash-frozen in liquid nitrogen, and stored at −80° C. Cell pellets were thawed on ice and incubated in lysis solution (50 mM HEPES-KOH pH 8, 140 mM NaCl, 1 mM EDTA, 10% glycerol, 0.5% NP40, 0.25% Triton X-100) for ten minutes. The isolated nuclei were washed with wash solution (10 mM Tris-HCl pH 8, 1 mM EDTA, 0.5 mM EGTA, 200 mM NaCl) and shearing buffer (0.1% SDS, 1 mM EDTA, 10 mM Tris-HCl pH 8) then sheared in a Covaris® E229 sonicator for ten minutes to generate DNA fragments between ˜200-1000 base pairs (bp). After clarification of insoluble material by centrifugation, the chromatin was immunoprecipitated overnight at 4° C. with antibodies against Foxp3, Smarca4, Brd9, Phf10 or H3K27ac. The next day, the antibody bound DNA was incubated with Protein A+G Dynabeads™ (Invitrogen) in ChIP buffer (50 mM HEPES-KOH pH 7.5, 300 mM NaCl, 1 mM EDTA, 1% Triton X-100, 0.1% DOC, 0.1% SDS), washed and treated with Proteinase K and RNase A. Cross-linking was reversed by incubation at 55° C. for two and a half hours. Purified ChIP DNA was used for library generation (NuGen Ovation® Ultralow Library System V2) according to manufacturer's instructions for subsequent sequencing.
Single-end 50 bp or paired-end 42 bp reads were aligned to mouse genome mm10 using STAR alignment tool (V2.5) (Dobin et al., Bioinformatics 29:15-21, 2013). ChIP-Seq peaks were called using findPeaks within HOMER using parameters for histone (-style histone) or transcription factor (-style factor) (homer.ucsd.edu/homer/index.html). Peaks were called when enriched >two-fold over input and >four-fold over local tag counts, with FDR 0.001. For histone ChIP, peaks within a 1000 bp range were stitched together to form regions. Differential ChIP peaks were found by merging peaks from control and experiment groups and called using getDiffExpression.pl with fold change ≥1.5 or ≤−1.5, Poisson p value<0.0001.

[4] = test system: Treg cells; experiment: In vitro Treg suppression assay; assay type: cell-based, mouse; settings: sgRNA transduced Treg cells plus MIGR-Foxp3
Excerpt: Treg cells were transduced by retrovirus expressing sgRNA targeting gene of interest and cultured in X-VIVO® complete media supplemented with IL-2 (500 U/ml). Four days after transduction, transduced cells were […] a fluorescence-activated cell sorter (FACS). CD45.1+ naive CD4 T cells (CD4^+CD25^−CD44^loCD62^hi) were labeled with CellTrace™ Violet (Thermo Fisher Scientific #C34571) in different ratio in the presence of irradiated T cell depleted spleen cells as antigen-presenting cells (APC). Three days later, Treg suppression function was measured by the percentage of non-dividing cells within the CD45.1^+ effector T cell population. For dBRD9 treatment experiment, dBRD9 was first dissolved in DMSO (10 mM stock) and added into Treg:Teff:APC mixture at 2.5 μM. For Foxp3 overexpression rescue experiment, Treg cells were first transduced with sgNT or sgBrd9 at 24 hour post-activation, and then transduced with MIGR empty vector or MIGR-Foxp3 at 48 hour post-activation. Double transduced Treg cells were FACS sorted on day 4 based on NGFR+ and GFP+ markers and then mixed with CellTrace™ labeled effector T cells in the presence of APC. Treg suppression readout was measured after three days of co-culture.

[5] = transferred Treg population, vs sgNT

Q: Which tumor growth ([1]; Rag1^−/− mice receiving sgRNA transduced Treg cells vs sgNT Treg cells) does the source give for “sgBrd9: sgRNA targeting Brd9, ATTAACCGGTTTCTCCCGGG (SEQ ID NO: 12) (expressed or natural sequence)” here?
A: significantly slower

Q: What about the “percentage of transferred Treg cells” value ([1]; relative to sgNT Treg cells) of the same substance?
A: reduced

Q: And the “GFP^+Foxp3^− ex-Treg population” value [1, 5]?
A: increase

Q: What about the “percentage of ex-Treg cells producing IFN-γ” value [1, 5] of the same substance?
A: higher percentage

Q: What about the “increase in the ratio of CD8 T cells to Treg cells” value ([1]; tumor and spleen, sgBrd9 versus sgNT) of the same substance?
A: 2-3 fold

Q: And the “CD4 and CD8 T cell tumor infiltration” value ([1]; vs sgNT Treg cells)?
A: significantly increased

Q: And the “percentage of IFN-γ producing intra-tumor CD4 and CD8 T cells” value ([1]; vs sgNT Treg condition)?
A: significantly greater

Q: What about the “H3K27ac at Brd9-dependent Foxp3 sites” value [2] of the same substance?
A: reduction in H3K27ac

Q: And the “Brd9-dependent sites where binding was not rescued by restoring Foxp3 expression” value ([3]; sgBrd9 Treg cells plus ectopic Foxp3)?
A: ~71%

Q: What about the “Foxp3 binding at CNS2/CNS0” value ([3]; sgRNA transduced Treg cells) of the same substance?
A: marked reduction of Foxp3 binding at CNS2/CNS0

Q: What about the “Foxp3 binding with ectopic Foxp3 expression” value ([3]; sgRNA transduced Treg cells plus MIGR-Foxp3) of the same substance?
A: partially restored Foxp3 binding

Q: And the “Foxp3 binding at a subset of Foxp3 sites (Brd9-dependent sites)” value ([3]; sgRNA transduced Treg cells, FC1.5, Poisson p<0.0001)?
A: significantly reduced

Q: And the “Treg suppressor activity with ectopic expression of Foxp3” value [4]?
A: partially restored Treg suppressor activity to a level comparable to sgNT controls

Source: patent US20240150755A1, “MODULATING REGULATORY T CELL FUNCTION IN AUTOIMMUNE DISEASE AND CANCER” (Salk Institute for Biological Studies, priority 2021, published 2024)
